Test results taken from patent US20260022143A1, “Cyclic Peptide Inhibitors of IL-23” (JANSSEN PHARMACEUTICA NV, priority 2022, published 2026).
Positions of bridges follow the written chain, without caps; N, C: chain ends. Non-standard residues stand in square brackets, D forms with d. Residues, ends and D or L forms follow the SMILES beside them. *: point of attachment. Me3N+(CH2)2O(CH2)2O(CH2)2CO = C[N+](C)(C)CCOCCOCCC(=O)*; Trp(7-Me) = Cc1cccc2c(C[C@H](N)C(=O)O)c[nH]c12; X28 = CCCCCCCCCCCCCCCC[N+](C)(C)CCc1cn(CC*)nn1; 2Nal = N[C@@H](Cc1ccc2ccccc2c1)C(=O)O; 3Pal = N[C@@H](Cc1cccnc1)C(=O)O; Lys(Me) = CNCCCC[C@H](N)C(=O)O; Pen = CC(C)(S)[C@H](N)C(=O)O; X38 = C[N+](C)(C)CCCCCC*; Thp = NC1(C(=O)O)CCOCC1; Sar = CNCC(=O)O

Tests used:
[1] = Exposed Polar Surface Area (EPSA); format: physicochemical; conditions: SFC on Chirex 3014 column; sample 1 mM DMSO stock; read-out: EPSA
Method in brief: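 EPSA, in Å^2, is read from SFC retention time through a linear relationship established with eight calibration standards. Separation uses a Chirex 3014 stationary phase, 35 °C, 14 MPa back pressure, and a 5–60% methanol/ammonium formate modifier gradient in CO2.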

[2] = target: T1, IL-23R (Homo sapiens, UniProt Q5VWK5); experiment: IL23R Reporter Assay; format: cell-based; conditions: HEK293 cells containing IL-23R, IL-12RP1 and STAT-inducible firefly luciferase reporter; 10 ng/mL IL-23 (EC90); 5 h at 37° C.; read-out: IL23R Reporter Assay
T1 construct: host or cells: HEK293
T1 sequence (Q5VWK5 24-629): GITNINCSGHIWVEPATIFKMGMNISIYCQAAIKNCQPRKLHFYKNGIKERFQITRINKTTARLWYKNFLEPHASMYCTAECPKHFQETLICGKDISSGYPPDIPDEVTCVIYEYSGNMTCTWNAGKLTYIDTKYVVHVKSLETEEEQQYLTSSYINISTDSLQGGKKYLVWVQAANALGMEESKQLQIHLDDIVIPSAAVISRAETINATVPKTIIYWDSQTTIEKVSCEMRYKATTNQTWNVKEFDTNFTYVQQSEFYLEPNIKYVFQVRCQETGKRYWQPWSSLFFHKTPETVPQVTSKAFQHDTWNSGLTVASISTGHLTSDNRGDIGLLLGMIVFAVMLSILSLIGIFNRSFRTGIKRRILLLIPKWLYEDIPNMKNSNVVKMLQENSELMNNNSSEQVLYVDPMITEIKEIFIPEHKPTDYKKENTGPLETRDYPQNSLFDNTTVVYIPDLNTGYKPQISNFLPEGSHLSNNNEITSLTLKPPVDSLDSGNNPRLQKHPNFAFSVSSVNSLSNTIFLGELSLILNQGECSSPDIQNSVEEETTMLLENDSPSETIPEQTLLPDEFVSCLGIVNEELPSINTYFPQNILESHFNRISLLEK

| EPSA [1] | IC50 [2] | Structure (SMILES) |
| --- | --- | --- |
| 144 A^2 | 0.024 µM | COCC[N+](C)(C)CCc1cn(C[C@H](NC(=O)[C@H]2NC(=O)[C@H](CCCCN(C)C(C)=O)NC(=O)[C@H](Cc3c[nH]c4c(C)cccc34)NC(=O)[C@H]([C@@H](C)O)NC(=O)[C@H](CC(=O)N(C)C)NC(=O)[C@@H](NC(=O)CCOCCOCC[N+](C)(C)C)C(C)(C)SSC2(C)C)C(=O)N[C@@H](Cc2ccc3ccccc3c2)C(=O)NC2(C(=O)N[C@@H](CCCCN(C)C(C)=O)C(=O)N[C@@H](CC(N)=O)C(=O)N[C@@H](Cc3cccnc3)C(=O)N(C)CC(=O)N(C)C)CCOCC2)nn1 [compound 288, cPEG3aCO-Pen(3)-N(N(Me)2)-T-7MeW-K(NMeAc)-Pen(3)-TzlChmPEG-2Nal-THP-K(NMeAc)-N-3Pya-Sar-CON(Me)2] |
| 142 A^2 | 0.079 µM | COCCOCCOCC[N+](C)(C)CCc1cn(C[C@H](NC(=O)[C@H]2NC(=O)[C@H](CCCCN(C)C(C)=O)NC(=O)[C@H](Cc3c[nH]c4c(C)cccc34)NC(=O)[C@H]([C@@H](C)O)NC(=O)[C@H](CC(=O)N(C)C)NC(=O)[C@@H](NC(=O)CCOCCOCC[N+](C)(C)C)C(C)(C)SSC2(C)C)C(=O)N[C@@H](Cc2ccc3ccccc3c2)C(=O)NC2(C(=O)N[C@@H](CCCCN(C)C(C)=O)C(=O)N[C@@H](CC(N)=O)C(=O)N[C@@H](Cc3cccnc3)C(=O)N(C)CC(=O)N(C)C)CCOCC2)nn1 [compound 289, cPEG3aCO-Pen(3)-N(N(Me)2)-T-7MeW-K(NMeAc)-Pen(3)-TzlChmPEG3-2Nal-THP-K(NMeAc)-N-3Pya-Sar-CON(Me)2] |
| 137 A^2 | 0.61 µM | CCCCCCCCCCCCCCCC[N+](C)(C)CCc1cn(CCOc2ccc(C[C@H](NC(=O)[C@H]3NC(=O)[C@H](CCCCN(C)C(C)=O)NC(=O)[C@H](Cc4c[nH]c5c(C)cccc45)NC(=O)[C@H]([C@@H](C)O)NC(=O)[C@H](CC(=O)N(C)C)NC(=O)[C@@H](NC(=O)CCOCCOCC[N+](C)(C)C)C(C)(C)SSC3(C)C)C(=O)N[C@@H](Cc3ccc4ccccc4c3)C(=O)NC3(C(=O)N[C@@H](CCCCN(C)C(C)=O)C(=O)N[C@@H](CC(N)=O)C(=O)N[C@@H](Cc4cccnc4)C(=O)N(C)CC(=O)N(C)C)CCOCC3)cc2)nn1 [compound 291, cPEG3aCO-Pen(3)-N(N(Me)2)-T-7MeW-K(NMeAc)-Pen(3)-Y(OTzlChC16)-2Nal-THP-K(NMeAc)-N-3Pya-Sar-CON(Me)2] ({Me3N+(CH2)2O(CH2)2O(CH2)2CO}-[Pen]D(NMe2)T[Trp(7-Me)][Lys(Me)](Ac)[Pen]Y(X28)[2Nal][Thp][Lys(Me)](Ac)N[3Pal][Sar]-NMe2; disulfide 1-6 (inferred)) |
| 149 A^2 | 0.0032 µM | CC(=O)N(C)CCCC[C@@H]1NC(=O)[C@H](Cc2c[nH]c3c(C)cccc23)NC(=O)[C@H]([C@@H](C)O)NC(=O)[C@H](CC(=O)N(C)C)NC(=O)[C@@H](NC(=O)CCOCCOCC[N+](C)(C)C)C(C)(C)SSC(C)(C)[C@@H](C(=O)N[C@@H](Cc2ccc(OCCCCCC[N+](C)(C)C)cc2)C(=O)N[C@@H](Cc2ccc3ccccc3c2)C(=O)NC2(C(=O)N[C@@H](CCCCN(C)C(C)=O)C(=O)N[C@@H](CC(N)=O)C(=O)N[C@@H](Cc3cccnc3)C(=O)N(C)CC(=O)N(C)C)CCOCC2)NC1=O [compound 293, cPEG3aCO-Pen(3)-N(N(Me)2)-T-7MeW-K(NMeAc)-Pen(3)-TMA6F-2Nal-THP-K(NMeAc)-N-3Pya-Sar-CON(Me)2] ({Me3N+(CH2)2O(CH2)2O(CH2)2CO}-[Pen]D(NMe2)T[Trp(7-Me)][Lys(Me)](Ac)[Pen]Y(X38)[2Nal][Thp][Lys(Me)](Ac)N[3Pal][Sar]-NMe2; disulfide 1-6) |
